Data set [1] in a line: Cure index of ink-jet magenta inks. As to conditions: ketocoumarin 6.167% in Inventive Ink-Jet PI Blend, 84 mJ per pass, 70 m/min, rounded to nearest 0.5. The protocol:
Magenta ink-jet inks were prepared to assess the performance of the inventive ketocoumarin materials an ink-jet ink formulation. The magenta ink formulation is based on 17.5% of a magenta pigment concentrate and a blend of difunctional monomers which includes propoxylated neopentylglycol diacrylate, dipropyleneglycol diacrylate, tripropylene glycol diacrylate (all at approximately 15%) and 2-(2-Vinyloxyethoxy)ethyl acrylate (at approximately 20%).
The inks were printed onto white PE TopTrans top-coated label substrate using a No. 2 K-Bar (red). The No. 2 K-bar gives a film thickness of about 12 μm. The inks were cured at 70 m/min using a Primarc UV rig fitted with a single 300 W/inch medium pressure mercury lamp, operating at full power (84 mJ per pass). Cure index was determined using the same cure index test described above for the black offset inks.
The cure index results in Table 12 were determined using the same test method as described for the black offset inks in Tables 7-9 with one exception; in Table 12 the cure index figures were rounded to the nearest 0.5 rather than to the nearest whole number. It should be noted that the cure index numbers are a representation of cure at a relatively low UV lamp dose compared to that used in a commercial application. A commercial application would typically use higher UV lamp dosage and all of the above formulations would perform adequately under these conditions. The experiments have been set up to highlight differences in cure and therefore have been carried out at relatively low cure dose. In the above experiments an ink with a cure index of less than 4-5 would cure adequately using commercial lamp conditions. Inks with a cure index of much lower than 4-5 are, therefore, performing very well.

Data set [2] in a line: Solubility by visual inspection of ink and prints. The settings on record: visual inspection of inks and prints. Type of data set: physicochemical. Also noted: key: Good=Soluble (no solid bits in the ink and good printability); OK=Partially insoluble (some solid bits in the ink and slightly poor printability); Poor=Very noticeable insolubility (very noticeable solid bits in the ink and poor printability). How it is done:
The solubility of the materials was assessed by visual inspection of the inks and from visual inspection of the prints. Insolubility is reported as follows: Good=Soluble (no solid bits in the ink and good printability); OK=Partially insoluble (some solid bits in the ink and slightly poor printability); Poor=Very noticeable insolubility (very noticeable solid bits in the ink and poor printability).

Data set [3] is described as follows: Cure index (set-off cure test, sum of DL values). The settings on record: Offset Black Ink 3; ketocoumarin 6.000% in Inventive PI Blend 3; ~32 mJ per pass, 100 m/min; lower is superior cure. From the text:
Offset Black Ink 3—based on a ketone functional resin, tri- and tetra-functional alkoxylated acrylates and approximately 14% carbon black pigment.
(§1) The inks were printed onto a carton board substrate (Incada Exel coated board from Iggesund) to a density of approximately 1.8-2.0 using an IGT C1 print proofer. These were cured at 100 m/min using a Primarc UV rig fitted with a single 300 W/inch medium pressure mercury lamp, operating at half power (˜32 mJ per pass). The number of passes required to cure was measured by a “set-off cure test” which is done by visually comparing the extent to which after each pass the ink has transferred to a piece of blank substrate under 10 tons pressure for 5 seconds. […] The amount of set-off is then measured using color computer software, which determines the average color density of the set-off ink compared to a blank piece of substrate. The amount of set-off is measured as the lightness “DL” of the blank substrate vs. the transferred ink film, measured using a Spectraflash 650 spectrophotometer. The DL value is measured for each pass of the ink underneath the curing lamp, using a fresh piece of substrate for each pass until the ink is deemed fully cured and there is no visible ink transfer. The cure index is calculated by adding the individual DL values and rounding the sum to the nearest whole number. For example, if 4 passes under the curing lamp was required to cure a given ink film, and the DL values for the first 3 passes were 8.89, 5.27, 2.15 respectively, then the sum of the figures would be 16.31, which would be rounded to a cure index of 16. Note that there is no DL value taken after the 4th pass, as the ink film was determined to be fully cured by the visual absence of ink transferred during the set-off cure test. […] The tables below show the results for the evaluations.

Data set [4] can be described thus: Cure index (set-off cure test, sum of DL values). The settings on record: Offset Black Ink 2; ketocoumarin 5.10% in Inventive PI Blend 2; ~32 mJ per pass, 100 m/min; lower is superior cure.
Source text: Offset Black Ink 2—based on a ketone functional resin, tri- and tetra-functional alkoxylated acrylates and approximately 14% carbon black pigment.
as §1

Data set [5] is described as follows: Cure index (set-off cure test, sum of DL values). As to conditions: Offset Black Ink 1; ketocoumarin 5.10% in Inventive PI Blend 1; ~32 mJ per pass, 100 m/min; lower is superior cure. How it is done:
Offset Black Ink 1—based on a urea-formaldehyde resin, trifunctional acrylate and approximately 13% carbon black pigment.
as §1

Molecules are shown by their SMILES.

In data set [1], `CCCCCCCCCCCCOC(=O)COc1ccc2cc(C(=O)c3ccccc3)c(=O)oc2c1` [Inventive Example 16] came in with a Cure index of 5. Also, in data set [2], the “Solubility in Ink-Jet Magenta Ink” value is “Poor”, the “Solubility in Offset Black Ink 1” value is listed as “OK”, the “Solubility in Offset Black Ink 2” value was “OK” and the “Solubility in Offset Black Ink 3” value is reported as “OK”. Further, the Cure index in data set [3] is listed as 56. Further, the Cure index in data set [4] is on record as 31. The same compound yielded a Cure index in data set [5] of 52.
In data set [1], `O=C(COc1ccc2cc(C(=O)c3ccccc3)c(=O)oc2c1)OCCOCCOCCOC(=O)COc1ccc2cc(C(=O)c3ccccc3)c(=O)oc2c1` [Inventive Example 11] showed a Cure index of 1. Besides, in data set [2], the “Solubility in Ink-Jet Magenta Ink” value is “OK”, the “Solubility in Offset Black Ink 1” value is on record as “OK”, the “Solubility in Offset Black Ink 2” value is “OK” and the “Solubility in Offset Black Ink 3” value is “OK”. Further, the Cure index in data set [3] came to 42. Moreover, the Cure index in data set [4] stood at 23. Besides, in data set [5], the Cure index worked out at 53.
Regarding `O=C(c1ccccc1)c1cc2ccccc2oc1=O` [Comparative Example 1, reference compound], the Cure index in data set [1] amounted to 38. For the same compound, in data set [2], the “Solubility in Ink-Jet Magenta Ink” value is on record as “Poor”, the “Solubility in Offset Black Ink 1” value is “Poor”, the “Solubility in Offset Black Ink 2” value is “Poor” and the “Solubility in Offset Black Ink 3” value is “Poor”. For the same compound, the Cure index in data set [3] was 27. Also, in data set [4], the Cure index stood at 24. This compound came in with a Cure index in data set [5] of 28.
`CCOC(=O)COc1ccc2cc(C(=O)c3ccccc3)c(=O)oc2c1` [Inventive Example 12]: the Cure index was found to be 3 in data set [1], 26 in data set [3], 15 in data set [4] and 46 in data set [5]. The “Solubility in Ink-Jet Magenta Ink” value in data set [2] is reported as “Poor”. In addition, the “Solubility in Offset Black Ink 1” value in data set [2] is “OK”. The “Solubility in Offset Black Ink 2” value in data set [2] is reported as “OK”. Further, in data set [2], the “Solubility in Offset Black Ink 3” value was “OK”.
As for `CCC(COC(=O)COc1ccc2cc(C(=O)c3ccccc3)c(=O)oc2c1)(COC(=O)COc1ccc2cc(C(=O)c3ccccc3)c(=O)oc2c1)COC(=O)COc1ccc2cc(C(=O)c3ccccc3)c(=O)oc2c1` [Inventive Example 14], the Cure index in data set [1] was found to be 1; in data set [3], 14; in data set [4], 7; in data set [5] it was 28. The “Solubility in Ink-Jet Magenta Ink” value in data set [2] is on record as “Poor”. Besides, the “Solubility in Offset Black Ink 1” value in data set [2] is given as “OK”. Also, the “Solubility in Offset Black Ink 2” value in data set [2] is recorded as “OK”. Besides, the “Solubility in Offset Black Ink 3” value in data set [2] is given as “OK”.
`O=C(COc1ccc2cc(C(=O)c3ccccc3)c(=O)oc2c1)OCCOCCOC(=O)COc1ccc2cc(C(=O)c3ccccc3)c(=O)oc2c1` [Inventive Example 5] came in with a Cure index in data set [1] of 9. Further, the “Solubility in Ink-Jet Magenta Ink” value in data set [2] is “Good”.
With `COc1ccc2cc(C(=O)c3ccccc3)c(=O)oc2c1` [Comparative Example 2, reference compound], the Cure index in data set [1] was <1. For the same compound, in data set [2], the “Solubility in Ink-Jet Magenta Ink” value was “Poor”, the “Solubility in Offset Black Ink 1” value is reported as “Poor”, the “Solubility in Offset Black Ink 2” value is given as “Poor” and the “Solubility in Offset Black Ink 3” value is “Poor”. The compound further registered a Cure index in data set [3] of 33. This compound also yielded a Cure index in data set [4] of 13. This compound also gave a Cure index in data set [5] of 52.

(Values after patent US9382433B2, “Ketocoumarins as photoinitiators and photosensitizers in printing inks and coatings” (SUN CHEMICAL CORPORATION, priority 2012, dated 2016).)
